Measurements: ChEMBL document CHEMBL3046758, “Biological evaluation of novel 1,4-dithiine derivatives as potential antimicrobial agents” (Med Chem Res, 2011)
Converted amounts (≈) assume the structure as drawn.

Assays:
Candida albicans = assay: Antifungal activity against Candida albicans DSM 1386 after 24 to 48 hr by broth microdilution method; format: functional
Pseudomonas aeruginosa = assay: Antibacterial activity against Pseudomonas aeruginosa DSM 1117 after 16 to 20 hr by broth microdilution method; format: functional
Staphylococcus aureus = assay: Antibacterial activity against Staphylococcus aureus DSM 2569 after 16 to 20 hr by broth microdilution method; format: functional
Aspergillus niger = assay: Antifungal activity against Aspergillus niger DSM 1988 after 24 to 48 hr by broth microdilution method; format: functional
[1] = Cytotoxicity against Homo sapiens (human) MT4 cells containing integrated HTLV-1 genome after 96 hr by MTT assay; format: cell-based
Poliovirus 1 = assay: Antiviral activity against Human poliovirus 1 strain Sabin infected African green monkey Vero76 cells assessed as reduction of virus-induced plaque reduction after 2 days by MTT assay; format: functional, organism-based; conditions: Enterovirus C, Vero 76, 48 h
Vaccinia virus = assay: Antiviral activity against Vaccinia virus infected African green monkey Vero76 cells assessed as reduction of virus-induced plaque reduction after 3 days by MTT assay; format: functional, organism-based; conditions: Orthopoxvirus vaccinia, Vero 76, 72 h
[2] = system: Vesicular stomatitis virus; assay: Antiviral activity against Vesicular stomatitis virus infected african green monkey Vero76 cells assessed as reduction of virus-induced plaque reduction after 3 days by MTT assay; format: functional, organism-based; conditions: Vero 76, 72 h
Human alphaherpesvirus 1 = assay: Antiviral activity against Human herpesvirus 1 infected African green monkey Vero76 cells assessed as reduction of virus-induced plaque reduction after 3 days by MTT assay; format: functional, organism-based; conditions: Human alphaherpesvirus 1, Vero 76, 72 h
[3] = Selectivity index, ratio of CC50 for green monkey Vero76 cells to EC50 for Coxsackievirus B2; format: toxicity, cell-based, Vero 76; conditions: read-out: Ratio CC50/EC50
[4] = Cytotoxicity against Chlorocebus aethiops (African green monkey) Vero76 cells after 48 to 120 hr by MTT assay; format: cell-based, Vero 76; conditions: chlorocebus sabaeus
Coxsackievirus B2 = assay: Antiviral activity against Human coxsackievirus B2 infected African green monkey Vero76 cells assessed as reduction of virus-induced plaque reduction after 3 days by MTT assay; format: functional, organism-based; conditions: Enterovirus B, Vero 76, 72 h
[5] = system: Mammalian orthoreovirus 1; assay: Antiviral activity against Mammalian orthoreovirus 1 infected BHK21 cells assessed as inhibition of virus-induced cytopathogenicity after 3 to 4 days by MTT assay; format: functional, organism-based; conditions: Mammalian orthoreovirus 1, BHK-21
Yellow fever virus = assay: Antiviral activity against Yellow fever virus infected BHK21 cells assessed as inhibition of virus-induced cytopathogenicity after 3 to 4 days by MTT assay; format: functional, organism-based; conditions: BHK-21
[6] = Cytotoxicity against Cricetinae BHK21 (hamster normal kidney fibroblast) cells after 48 to 120 hr by MTT assay; format: cell-based, Mesocricetus auratus, BHK-21; conditions: BHK21 cells (normal kidney fibroblasts)
[7] = system: Bovine viral diarrhea virus 1; assay: Antiviral activity against Bovine viral diarrhea virus 1 infected MDBK cells assessed as inhibition of virus-induced cytopathogenicity after 3 to 4 days by MTT assay; format: functional, organism-based; conditions: Bovine viral diarrhea virus isolates and strains
[8] = Cytotoxicity against Bos taurus MDBK cells after 48 to 120 hr by MTT assay; format: cell-based; conditions: cattle
[9] = system: Human immunodeficiency virus 1; assay: Antiviral activity against Human immunodeficiency virus 1 infected human MT4 cells assessed as inhibition of virus-induced cytopathogenicity after 4 days by MTT assay; format: functional, organism-based; conditions: Human immunodeficiency virus 1, MT4, 96 h
[10] = Selectivity index, ratio of CC50 for green monkey Vero76 cells to EC50 for Yellow fever virus; format: toxicity, cell-based, Vero 76; conditions: read-out: Ratio CC50/EC50
[11] = Selectivity index, ratio of CC50 for green monkey Vero76 cells to EC50 for HSV1; design: species or system Vero 76

## CN(C)CC(O)CN1C(=O)C2=C(SCCS2)C1=O (stereo not given)
Candida albicans
  MIC: > 100 µM
Pseudomonas aeruginosa
  MIC: > 100 µM
Staphylococcus aureus
  MIC: > 100 µM
Aspergillus niger
  MIC: > 100 µM
[1]
  CC50 at 96 h: > 100 µM

## O=C(O)c1cn(C2CC2)c2cc(N3CCNCC3)c(F)cc2c1=O [CIPROFLOXACIN]
Pseudomonas aeruginosa
  MIC: 0.8 µM (≈ 0.265 µg/mL)
Staphylococcus aureus
  MIC: 4 µM (≈ 1.33 µg/mL)

## O=C1C2=C(SCCS2)C(=O)N1CCCN1CCN(c2ccccc2O)CC1
[1]
  CC50 at 96 h: > 100 µM

## CC(C)(C)NCC(O)CN1C(=O)C2=C(SCCS2)C1=O (stereo not given)
Candida albicans
  MIC: > 100 µM
Pseudomonas aeruginosa
  MIC: > 100 µM
Staphylococcus aureus
  MIC: > 100 µM
Aspergillus niger
  MIC: > 100 µM
[1]
  CC50 at 96 h: > 100 µM

## O=C1C2=C(SCCS2)C(=O)N1CCCCN1CCN(c2ccc(F)cc2)CC1
Candida albicans
  MIC: > 100 µM
Pseudomonas aeruginosa
  MIC: > 100 µM
Poliovirus 1
  EC50: > 100 µM
Staphylococcus aureus
  MIC: > 100 µM
Vaccinia virus
  EC50: > 100 µM
[2]
  EC50: > 100 µM
Human alphaherpesvirus 1
  EC50: > 100 µM
[3]
  selectivity ratio: > 4.76
[4]
  CC50: > 100 µM
Coxsackievirus B2
  EC50: 21 µM
Aspergillus niger
  MIC: > 100 µM
[5]
  EC50: > 100 µM
Yellow fever virus
  EC50: > 100 µM
[6]
  CC50: > 100 µM
[7]
  EC50: > 100 µM
[8]
  CC50: > 100 µM
[9]
  EC50: > 100 µM
[1]
  CC50 at 96 h: > 100 µM

## O=C1NC(=O)C2=C1SCCS2
Candida albicans
  MIC: > 100 µM
Pseudomonas aeruginosa
  MIC: > 100 µM
Staphylococcus aureus
  MIC: > 100 µM
Aspergillus niger
  MIC: > 100 µM
[1]
  CC50 at 96 h: > 100 µM

## O=C1C2=C(SCCS2)C(=O)N1CC(O)CN1CCN(c2ccc(F)cc2)CC1 (stereo not given)
Candida albicans
  MIC: > 100 µM
Pseudomonas aeruginosa
  MIC: > 100 µM
Poliovirus 1
  EC50: > 100 µM
Staphylococcus aureus
  MIC: > 100 µM
Vaccinia virus
  EC50: > 100 µM
[10]
  selectivity ratio: > 1.25
[2]
  EC50: > 100 µM
Human alphaherpesvirus 1
  EC50: > 100 µM
[4]
  CC50: > 100 µM
Coxsackievirus B2
  EC50: > 100 µM
Aspergillus niger
  MIC: > 100 µM
[5]
  EC50: > 100 µM
Yellow fever virus
  EC50: 80 µM
[6]
  CC50: > 100 µM
[7]
  EC50: > 100 µM
[8]
  CC50: > 100 µM
[9]
  EC50: > 100 µM
[1]
  CC50 at 96 h: > 100 µM

## O=C1C2=C(SCCS2)C(=O)N1CCCN1CCN(c2ccc(F)cc2)CC1
Candida albicans
  MIC: > 100 µM
Pseudomonas aeruginosa
  MIC: > 100 µM
Poliovirus 1
  EC50: > 96 µM
Staphylococcus aureus
  MIC: > 100 µM
Vaccinia virus
  EC50: > 96 µM
[10]
  selectivity ratio: > 1.92
[2]
  EC50: > 96 µM
Human alphaherpesvirus 1
  EC50: > 96 µM
[3]
  selectivity ratio: > 4.8
[4]
  CC50: 96 µM
Coxsackievirus B2
  EC50: 20 µM
Aspergillus niger
  MIC: > 100 µM
[5]
  EC50: > 100 µM
Yellow fever virus
  EC50: 52 µM
[6]
  CC50: > 100 µM
[7]
  EC50: > 100 µM
[8]
  CC50: > 100 µM
[9]
  EC50: > 100 µM
[1]
  CC50 at 96 h: > 100 µM

## O=C1C2=C(SCCS2)C(=O)N1CC(O)CN1CCN(c2ccccc2)CC1 (stereo not given)
Candida albicans
  MIC: > 100 µM
Pseudomonas aeruginosa
  MIC: > 100 µM
Staphylococcus aureus
  MIC: > 100 µM
Aspergillus niger
  MIC: > 100 µM
[1]
  CC50 at 96 h: > 100 µM

## COc1ccccc1N1CCN(CCCCN2C(=O)C3=C(SCCS3)C2=O)CC1
[1]
  CC50 at 96 h: > 100 µM

## O=C1C2=C(SCCS2)C(=O)N1CC(O)CN1CCCCC1 (stereo not given)
Candida albicans
  MIC: > 100 µM
Pseudomonas aeruginosa
  MIC: > 100 µM
Staphylococcus aureus
  MIC: > 100 µM
Aspergillus niger
  MIC: > 100 µM
[1]
  CC50 at 96 h: > 100 µM

## COc1ccccc1N1CCN(CCCN2C(=O)C3=C(SCCS3)C2=O)CC1
[1]
  CC50 at 96 h: > 100 µM

## O=C1C2=C(SCCS2)C(=O)N1CCCCN1CCN(c2ccccc2)CC1
Candida albicans
  MIC: > 100 µM
Pseudomonas aeruginosa
  MIC: > 100 µM
Poliovirus 1
  EC50: > 100 µM
Staphylococcus aureus
  MIC: > 100 µM
Vaccinia virus
  EC50: > 100 µM
[10]
  selectivity ratio: > 1.14
[2]
  EC50: > 100 µM
[11]
  Ratio CC50/EC50: >5.26
Human alphaherpesvirus 1
  EC50: 19 µM
[3]
  selectivity ratio: > 1.51
[4]
  CC50: > 100 µM
Coxsackievirus B2
  EC50: 66 µM
Aspergillus niger
  MIC: > 100 µM
[5]
  EC50: > 100 µM
Yellow fever virus
  EC50: 88 µM
[6]
  CC50: > 100 µM
[7]
  EC50: > 100 µM
[8]
  CC50: > 100 µM
[9]
  EC50: > 100 µM
[1]
  CC50 at 96 h: > 100 µM
